This passage reports IC50 results from patent US20240218022A1, “ANTI-VISTA MACROCYCLIC PEPTIDES AND COMPOSITIONS” (BRISTOL-MYERS SQUIBB COMPANY, priority 2022, published 2024).

Starred links: 1 amine or outer side, 2 acyl side, 3 side chain; linkers in the order of their positions; H or OH if unused. Positions of bridges follow the written chain, without caps; N, C: chain ends. Non-standard residues stand in square brackets, D forms with d. Residues, ends and D or L forms follow the SMILES beside them. ξ: configuration not given here. Phe(3-CF3) = N[C@@H](Cc1cccc(C(F)(F)F)c1)C(=O)O; X1 = C=CCOc1ccccc1C[C@H](N[*:1])C(=O)[*:2]; Phe(3-Cl) = N[C@@H](Cc1cccc(Cl)c1)C(=O)O; Phe(3-Me) = Cc1cccc(C[C@H](N)C(=O)O)c1; 2Nal = N[C@@H](Cc1ccc2ccccc2c1)C(=O)O; Ahp(2) = CCCCC[C@H](N)C(=O)O; NMeNle = CCCC[C@H](NC)C(=O)O; Tle = CC(C)(C)[C@H](N)C(=O)O; NHexGly = CCCCCCNCC(=O)O; Nle = CCCC[C@H](N)C(=O)O; Orn = NCCC[C@H](N)C(=O)O; ξD = NC(CC(=O)O)C(=O)O; ξS = NC(CO)C(=O)O

For the test, the target named is T1, mouse VISTA (mVISTA) (Mus musculus, UniProt Q9D659).
T1 construct: expressed in transfected cells; host or cells: Human embryonic kidney 293T cells
T1 sequence (Q9D659 33-308): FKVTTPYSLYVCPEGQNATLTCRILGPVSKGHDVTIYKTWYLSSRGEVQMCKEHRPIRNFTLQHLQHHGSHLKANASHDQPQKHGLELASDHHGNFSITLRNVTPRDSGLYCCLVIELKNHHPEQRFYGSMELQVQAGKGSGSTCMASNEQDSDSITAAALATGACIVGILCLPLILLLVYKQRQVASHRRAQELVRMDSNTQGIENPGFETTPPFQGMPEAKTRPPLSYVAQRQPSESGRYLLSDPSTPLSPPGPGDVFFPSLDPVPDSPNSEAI
Briefly: Cell-Based Binding High-Content Assay For mVISTA (HC CBA mVISTA). Particulars: read-out: HC CBA mVISTA IC50. The procedure, abridged: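 Competition of compound with a biotinylated peptide (final 2 nM, 30 min at RT) for binding to mVISTA on 293T cells, run under no-wash or wash (1 h compound preincubation then removal) formats. Readout by Alexa 647–streptavidin imaging on a high-content platform; four-parameter logistic fit gave IC50.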
Usually IC50 stands for the midpoint of a concentration-inhibition curve. `CCCCCCN1CC(=O)N[C@@H](Cc2ccc(O)cc2)C(=O)N[C@@H](C(C)C)C(=O)NCC(=O)N[C@@H](CCCNC(=N)N)C(=O)N[C@@H](CC(C)C)C(=O)N[C@@H](CCCCC)C(=O)N2CCC[C@H]2C(=O)N[C@@H](C(C)C)C(=O)N[C@@H](CC(=O)O)C(=O)N[C@H](C(=O)NCC(N)=O)CSCC(=O)N[C@@H](Cc2ccccc2)C(=O)N[C@@H](Cc2ccc3ccccc3c2)C(=O)N[C@@H](CC(=O)O)C1=O` [compound 1324] ({CH2CO}-F[2Nal]D[NHexGly]YVGRL[Ahp(2)]PVDCG-NH2; thioether N-14): the IC50 stood at 48.2 nM.
Next, `CCCCCCN1CC(=O)N[C@@H](Cc2ccc(O)cc2)C(=O)N[C@@H](CCCCC)C(=O)NCC(=O)N[C@@H](CCCNC(=N)N)C(=O)N[C@@H](CC(C)C)C(=O)N[C@@H](CCCCC)C(=O)N2CCC[C@H]2C(=O)N[C@@H](C(C)C)C(=O)N[C@@H](CO)C(=O)N[C@H](C(=O)NCC(N)=O)CSCC(=O)N[C@@H](Cc2ccccc2)C(=O)N[C@@H](Cc2ccccc2)C(=O)N[C@@H](CC(=O)O)C1=O` [compound 1325] ({CH2CO}-FFD[NHexGly]Y[Ahp(2)]GRL[Ahp(2)]PVSCG-NH2; thioether N-14): 24.3 nM.
In the case of `CCCCCCN1CC(=O)N[C@@H](Cc2ccc(O)cc2)C(=O)N[C@@H](CCCC)C(=O)N[C@@H](CC(=O)O)C(=O)N[C@@H](CCCN)C(=O)N[C@@H](CC(C)C)C(=O)N[C@@H](CCCCC)C(=O)N2CCC[C@H]2C(=O)N[C@@H](C(C)C)C(=O)N[C@@H](CC(=O)O)C(=O)N[C@H](C(=O)NC(CC(=O)O)C(N)=O)CSCC(=O)N[C@@H](Cc2ccccc2)C(=O)N[C@@H](Cc2cccc(C)c2)C(=O)N[C@@H](CC(=O)O)C1=O` (stereo partly drawn) [compound 1326] ({CH2CO}-F[Phe(3-Me)]D[NHexGly]Y[Nle]D[Orn]L[Ahp(2)]PVDC[ξD]-NH2; thioether N-14), the 50% inhibitory concentration (IC50) was 17.5 nM.
As for `CCCCCCN1CC(=O)N[C@@H](Cc2ccc(O)cc2)C(=O)N[C@@H](CCCC)C(=O)N[C@@H](CC(=O)O)C(=O)N[C@@H](CCCNC(=N)N)C(=O)N[C@@H](CC(C)C)C(=O)N[C@@H](CCCCC)C(=O)N2CCC[C@H]2C(=O)N[C@@H](C(C)C)C(=O)N[C@@H](CC(=O)O)C(=O)N[C@H](C(=O)NC(CC(=O)O)C(N)=O)CSCC(=O)N[C@@H](Cc2ccccc2)C(=O)N[C@@H](Cc2cccc(C)c2)C(=O)N[C@@H](CC(=O)O)C1=O` (stereo partly drawn) [compound 1327] ({CH2CO}-F[Phe(3-Me)]D[NHexGly]Y[Nle]DRL[Ahp(2)]PVDC[ξD]-NH2; thioether N-14), the half-inhibitory concentration (IC50) was determined as 13.9 nM.
Take `CCCCCCN1CC(=O)N[C@@H](Cc2ccc(O)cc2)C(=O)N[C@@H](CC(C)C)C(=O)N[C@@H](CC(N)=O)C(=O)N[C@@H](CCCNC(=N)N)C(=O)N[C@@H](CC(C)C)C(=O)N[C@@H](CCCCC)C(=O)N2CCC[C@H]2C(=O)N[C@@H](C(C)C)C(=O)N[C@@H](C(C)C)C(=O)N[C@H](C(=O)NCC(=O)O)CSCC(=O)N[C@@H](Cc2ccccc2)C(=O)N[C@@H](Cc2cccc(C)c2)C(=O)N[C@@H](CC(=O)O)C1=O` [compound 1328] ({CH2CO}-F[Phe(3-Me)]D[NHexGly]YLNRL[Ahp(2)]PVVCG-OH; thioether N-14): the IC50 worked out at 2 nM.
As for `CCCCCCN1CC(=O)N[C@@H](Cc2ccc(O)cc2)C(=O)N[C@@H](CCCC)C(=O)N[C@@H](CC(N)=O)C(=O)N[C@@H](CCCNC(=N)N)C(=O)N[C@@H](CC(C)C)C(=O)N[C@@H](CCCCC)C(=O)N2CCC[C@H]2C(=O)N[C@@H](C(C)C)C(=O)N[C@@H](CC(=O)O)C(=O)N[C@H](C(=O)NCC(=O)O)CSCC(=O)N[C@@H](Cc2ccccc2)C(=O)N[C@@H](Cc2cccc(C)c2)C(=O)N[C@@H](CC(=O)O)C1=O` [compound 1329] ({CH2CO}-F[Phe(3-Me)]D[NHexGly]Y[Nle]NRL[Ahp(2)]PVDCG-OH; thioether N-14), the 50% inhibitory concentration (IC50) worked out at 4.5 nM.
As for `CCCCCCN1CC(=O)N[C@@H](Cc2ccc(O)cc2)C(=O)N[C@@H](CCCC)C(=O)N[C@@H](CC(=O)O)C(=O)N[C@@H](CCCNC(=N)N)C(=O)N[C@@H](CC(C)C)C(=O)N[C@@H](CCCCC)C(=O)N2CCC[C@H]2C(=O)N[C@@H](C(C)C)C(=O)N[C@@H](CC(=O)O)C(=O)N[C@H](C(=O)NC(CO)C(N)=O)CSCC(=O)N[C@@H](Cc2ccccc2)C(=O)N[C@@H](Cc2cccc(C)c2)C(=O)N[C@@H](CC(=O)O)C1=O` (stereo partly drawn) [compound 1330] ({CH2CO}-F[Phe(3-Me)]D[NHexGly]Y[Nle]DRL[Ahp(2)]PVDC[ξS]-NH2; thioether N-14), the IC50 was 16.8 nM.
The value for `CCCCCCN1CC(=O)N[C@@H](Cc2ccc(O)cc2)C(=O)N[C@@H](CCCC)C(=O)N[C@@H](CC(=O)O)C(=O)N[C@@H](CCCN)C(=O)N[C@@H](CC(C)C)C(=O)N[C@@H](CCCCC)C(=O)N2CCC[C@H]2C(=O)N[C@@H](C(C)C)C(=O)N[C@@H](CC(=O)O)C(=O)N[C@H](C(=O)NC(CO)C(N)=O)CSCC(=O)N[C@@H](Cc2ccccc2)C(=O)N[C@@H](Cc2cccc(C)c2)C(=O)N[C@@H](CC(=O)O)C1=O` (stereo partly drawn) [compound 1331] ({CH2CO}-F[Phe(3-Me)]D[NHexGly]Y[Nle]D[Orn]L[Ahp(2)]PVDC[ξS]-NH2; thioether N-14) was 14.3 nM; that for `CCCCCCN1CC(=O)N[C@@H](Cc2ccc(O)cc2)C(=O)N[C@@H](CCCC)C(=O)N[C@@H](CC(N)=O)C(=O)N[C@@H](CCCNC(=N)N)C(=O)N[C@@H](CC(C)C)C(=O)N[C@@H](CCCCC)C(=O)N2CCC[C@H]2C(=O)N[C@@H](C(C)C)C(=O)N[C@@H](CC(=O)O)C(=O)N[C@H](C(=O)NCC(=O)O)CSCC(=O)N[C@@H](Cc2ccccc2)C(=O)N[C@@H](Cc2cccc(C(F)(F)F)c2)C(=O)N[C@@H](CC(=O)O)C1=O` [compound 1332] ({CH2CO}-F[Phe(3-CF3)]D[NHexGly]Y[Nle]NRL[Ahp(2)]PVDCG-OH; thioether N-14) was 12.1 nM; that for `CCCCCCN1CC(=O)N[C@@H](Cc2ccc(O)cc2)C(=O)N[C@@H](CC(C)C)C(=O)N[C@@H](CC(N)=O)C(=O)N[C@@H](CCCNC(=N)N)C(=O)N[C@@H](CC(C)C)C(=O)N[C@@H](CCCCC)C(=O)N2CCC[C@H]2C(=O)N[C@@H](C(C)C)C(=O)N[C@@H](C(C)C)C(=O)N[C@H](C(=O)NCC(=O)O)CSCC(=O)N[C@@H](Cc2ccccc2)C(=O)N[C@@H](Cc2cccc(C(F)(F)F)c2)C(=O)N[C@@H](CC(=O)O)C1=O` [compound 1333] ({CH2CO}-F[Phe(3-CF3)]D[NHexGly]YLNRL[Ahp(2)]PVVCG-OH; thioether N-14) was 27.6 nM.
For the compound `C=CCOc1ccccc1C[C@@H]1NC(=O)[C@H](Cc2ccccc2)NC(=O)CSC[C@@H](C(=O)NCC(N)=O)NC(=O)[C@H](CO)NC(=O)[C@H](C(C)(C)C)NC(=O)[C@@H]2CCCN2C(=O)[C@H](CCCCC)NC(=O)[C@H](CCCC)N(C)C(=O)[C@H](CCCNC(=N)N)NC(=O)[C@H](CC(N)=O)NC(=O)[C@H](CC(C)C)NC(=O)[C@H](Cc2ccc(O)cc2)NC(=O)CN(CCCCCC)C(=O)[C@H](CC(=O)O)NC1=O` [compound 1338] ({CH2CO}-F[X1]D[NHexGly]YLNR[NMeNle][Ahp(2)]P[Tle]SCG-NH2; thioether N-14), the IC50 is 34.6 nM.
Next, `CCCCCCN1CC(=O)N[C@@H](Cc2ccc(O)cc2)C(=O)N[C@@H](CC(C)C)C(=O)N[C@@H](CC(N)=O)C(=O)N[C@@H](CCCNC(=N)N)C(=O)N(C)[C@@H](CCCC)C(=O)N[C@@H](CCCCC)C(=O)N2CCC[C@H]2C(=O)N[C@@H](C(C)(C)C)C(=O)N[C@@H](CO)C(=O)N[C@H](C(=O)NCC(N)=O)CSCC(=O)N[C@@H](Cc2ccccc2)C(=O)N[C@@H](Cc2cccc(Cl)c2)C(=O)N[C@@H](CC(=O)O)C1=O` [compound 1339] ({CH2CO}-F[Phe(3-Cl)]D[NHexGly]YLNR[NMeNle][Ahp(2)]P[Tle]SCG-NH2; thioether N-14): 31.6 nM.
